Measurements reported in ChEMBL document CHEMBL3739345, “Design and synthesis of potent and selective inhibitors of BRD7 and BRD9 bromodomains” (Medchemcomm, 2015).

Experiments:
[1] = molecular target: T1, Peregrin (Homo sapiens) (UniProt P55201); test: Binding affinity to human BRPF1B assessed as change in melting temperature at 10 uM by differential scanning fluorimetry
T1 sequence (whole entry): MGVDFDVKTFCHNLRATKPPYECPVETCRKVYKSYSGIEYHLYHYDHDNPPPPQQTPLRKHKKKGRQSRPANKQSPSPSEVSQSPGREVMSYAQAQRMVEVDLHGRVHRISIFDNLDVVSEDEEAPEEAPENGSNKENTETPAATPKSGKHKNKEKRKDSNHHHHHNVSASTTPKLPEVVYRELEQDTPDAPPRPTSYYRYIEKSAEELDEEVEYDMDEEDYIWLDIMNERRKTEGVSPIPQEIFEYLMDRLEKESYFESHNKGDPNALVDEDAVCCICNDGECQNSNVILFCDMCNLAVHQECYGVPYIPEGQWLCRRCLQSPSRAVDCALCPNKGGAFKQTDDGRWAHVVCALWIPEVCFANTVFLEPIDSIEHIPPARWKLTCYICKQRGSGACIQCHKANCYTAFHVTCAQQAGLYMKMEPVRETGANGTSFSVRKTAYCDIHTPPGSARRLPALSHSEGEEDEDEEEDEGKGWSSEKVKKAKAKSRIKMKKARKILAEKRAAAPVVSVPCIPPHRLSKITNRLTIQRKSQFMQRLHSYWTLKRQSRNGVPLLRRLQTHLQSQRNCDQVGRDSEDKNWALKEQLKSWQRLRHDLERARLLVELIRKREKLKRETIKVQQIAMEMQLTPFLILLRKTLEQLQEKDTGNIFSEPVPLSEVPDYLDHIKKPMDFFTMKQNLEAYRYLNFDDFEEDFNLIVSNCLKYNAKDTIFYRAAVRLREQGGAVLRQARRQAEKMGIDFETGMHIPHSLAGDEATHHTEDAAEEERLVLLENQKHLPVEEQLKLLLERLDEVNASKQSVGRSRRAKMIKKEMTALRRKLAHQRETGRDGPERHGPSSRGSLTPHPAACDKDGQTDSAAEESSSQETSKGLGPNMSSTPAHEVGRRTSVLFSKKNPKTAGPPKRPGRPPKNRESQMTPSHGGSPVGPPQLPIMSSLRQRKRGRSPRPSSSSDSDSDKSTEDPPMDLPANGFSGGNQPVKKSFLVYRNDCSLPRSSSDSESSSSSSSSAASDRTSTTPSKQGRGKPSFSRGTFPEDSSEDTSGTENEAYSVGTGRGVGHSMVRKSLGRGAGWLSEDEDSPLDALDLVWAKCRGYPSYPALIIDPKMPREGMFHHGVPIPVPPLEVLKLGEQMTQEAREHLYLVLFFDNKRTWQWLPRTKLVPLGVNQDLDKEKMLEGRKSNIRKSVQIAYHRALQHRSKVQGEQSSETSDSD

[2] = molecular target: T2, Bromodomain-containing protein 9 (Homo sapiens) (UniProt Q9H8M2); test: Binding affinity to human BRD9 assessed as change in melting temperature at 10 uM by differential scanning fluorimetry
T2 sequence (whole entry): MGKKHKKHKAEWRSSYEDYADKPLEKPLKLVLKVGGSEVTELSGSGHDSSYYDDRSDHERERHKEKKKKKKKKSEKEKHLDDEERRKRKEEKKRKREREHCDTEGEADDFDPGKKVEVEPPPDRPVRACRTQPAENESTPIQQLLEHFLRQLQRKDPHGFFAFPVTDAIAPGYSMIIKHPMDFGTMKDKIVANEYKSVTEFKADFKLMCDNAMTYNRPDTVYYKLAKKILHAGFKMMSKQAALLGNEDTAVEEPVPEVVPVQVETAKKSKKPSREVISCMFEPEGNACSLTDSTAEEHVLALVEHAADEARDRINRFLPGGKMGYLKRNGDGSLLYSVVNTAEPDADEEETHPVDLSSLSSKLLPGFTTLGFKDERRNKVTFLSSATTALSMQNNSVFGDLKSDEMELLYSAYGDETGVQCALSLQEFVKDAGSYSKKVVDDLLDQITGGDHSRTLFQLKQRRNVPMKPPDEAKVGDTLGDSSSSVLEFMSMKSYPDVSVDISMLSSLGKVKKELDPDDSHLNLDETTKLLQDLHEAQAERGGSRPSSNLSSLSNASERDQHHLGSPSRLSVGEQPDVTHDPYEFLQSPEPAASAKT

[3] = molecular target: T3, Bromodomain-containing protein 4 (Homo sapiens, UniProt O60885); test: Binding affinity to human BRD4 assessed as change in melting temperature at 10 uM by differential scanning fluorimetry
[4] = molecular target: T3, Bromodomain-containing protein 4; test: Inhibition of human BRD4 by alpha screen assay
[5] = molecular target: T4, Peregrin (Homo sapiens, UniProt P55201); test: Inhibition of human BRPF1B by alpha screen assay
T4 sequence (P55201 whole entry): T1 sequence (whole entry)

[6] = molecular target: Bromodomain adjacent to zinc finger domain protein 2B (Homo sapiens, UniProt Q9UIF8); test: Inhibition of human BAZ2B by alpha screen assay
[7] = molecular target: T5, Bromodomain-containing protein 9 (Homo sapiens, UniProt Q9H8M2); test: Inhibition of human BRD9 by alpha screen assay
T5 sequence (Q9H8M2 whole entry): T2 sequence (whole entry)

Sequence of Bromodomain adjacent to zinc finger domain protein 2B (Q9UIF8 whole entry, the tested form may be a part): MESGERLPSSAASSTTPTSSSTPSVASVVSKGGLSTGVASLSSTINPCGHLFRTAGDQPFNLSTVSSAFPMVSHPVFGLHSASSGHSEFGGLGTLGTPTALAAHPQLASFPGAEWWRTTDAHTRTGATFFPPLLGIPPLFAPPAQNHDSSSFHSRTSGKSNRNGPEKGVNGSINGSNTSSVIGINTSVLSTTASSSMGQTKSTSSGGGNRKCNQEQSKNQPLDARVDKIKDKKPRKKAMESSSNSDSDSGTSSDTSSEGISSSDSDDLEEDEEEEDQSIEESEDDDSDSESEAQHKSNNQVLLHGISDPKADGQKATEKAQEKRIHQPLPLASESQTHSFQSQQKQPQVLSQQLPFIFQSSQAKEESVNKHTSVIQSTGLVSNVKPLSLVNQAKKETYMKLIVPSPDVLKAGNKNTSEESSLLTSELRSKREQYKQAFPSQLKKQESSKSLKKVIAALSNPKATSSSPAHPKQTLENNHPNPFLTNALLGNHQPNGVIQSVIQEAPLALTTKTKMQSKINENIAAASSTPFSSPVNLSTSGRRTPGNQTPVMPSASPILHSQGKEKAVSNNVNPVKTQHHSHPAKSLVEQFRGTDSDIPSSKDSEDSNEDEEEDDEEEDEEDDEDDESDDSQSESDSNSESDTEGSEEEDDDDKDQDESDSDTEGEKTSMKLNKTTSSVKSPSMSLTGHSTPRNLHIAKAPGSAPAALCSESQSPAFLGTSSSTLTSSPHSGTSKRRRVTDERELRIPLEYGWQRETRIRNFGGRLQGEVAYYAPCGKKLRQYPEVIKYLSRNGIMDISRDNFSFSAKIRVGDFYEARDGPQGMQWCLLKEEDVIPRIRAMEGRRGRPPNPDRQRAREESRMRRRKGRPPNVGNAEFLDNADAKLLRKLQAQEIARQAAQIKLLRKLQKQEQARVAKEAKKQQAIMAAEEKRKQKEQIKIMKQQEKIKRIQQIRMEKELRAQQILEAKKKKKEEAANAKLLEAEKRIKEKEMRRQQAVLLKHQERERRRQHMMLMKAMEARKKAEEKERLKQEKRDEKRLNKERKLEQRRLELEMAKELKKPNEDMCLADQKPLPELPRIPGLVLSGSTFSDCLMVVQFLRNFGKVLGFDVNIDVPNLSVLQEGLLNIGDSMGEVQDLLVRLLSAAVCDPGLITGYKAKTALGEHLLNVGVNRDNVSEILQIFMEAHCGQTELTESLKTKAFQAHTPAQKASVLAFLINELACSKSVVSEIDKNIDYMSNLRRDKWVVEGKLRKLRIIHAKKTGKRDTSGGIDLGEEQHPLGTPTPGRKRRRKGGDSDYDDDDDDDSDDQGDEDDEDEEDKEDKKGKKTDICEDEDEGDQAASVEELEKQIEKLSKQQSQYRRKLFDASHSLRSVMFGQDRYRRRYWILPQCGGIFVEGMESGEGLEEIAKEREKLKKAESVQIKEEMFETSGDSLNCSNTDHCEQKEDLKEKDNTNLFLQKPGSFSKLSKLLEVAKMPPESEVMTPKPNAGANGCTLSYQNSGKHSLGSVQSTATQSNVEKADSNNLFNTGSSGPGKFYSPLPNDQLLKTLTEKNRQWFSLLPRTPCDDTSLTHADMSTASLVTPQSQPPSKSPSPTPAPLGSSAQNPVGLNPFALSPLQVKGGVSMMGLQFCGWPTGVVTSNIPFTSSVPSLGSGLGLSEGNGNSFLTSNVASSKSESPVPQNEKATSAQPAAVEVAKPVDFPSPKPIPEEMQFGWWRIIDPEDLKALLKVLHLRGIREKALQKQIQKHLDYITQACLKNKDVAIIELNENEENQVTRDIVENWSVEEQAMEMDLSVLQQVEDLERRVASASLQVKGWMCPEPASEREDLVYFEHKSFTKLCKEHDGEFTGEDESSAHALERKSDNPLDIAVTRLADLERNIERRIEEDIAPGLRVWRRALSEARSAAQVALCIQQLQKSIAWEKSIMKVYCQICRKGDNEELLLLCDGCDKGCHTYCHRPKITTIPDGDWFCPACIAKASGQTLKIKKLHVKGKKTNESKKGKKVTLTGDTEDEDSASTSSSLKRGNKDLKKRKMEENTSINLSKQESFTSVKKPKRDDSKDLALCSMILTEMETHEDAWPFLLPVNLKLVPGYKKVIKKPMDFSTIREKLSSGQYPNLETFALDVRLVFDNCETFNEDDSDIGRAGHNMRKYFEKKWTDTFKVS

SMILES | ΔTm [1] | ΔTm [2] | ΔTm [3] | IC50 [4] | IC50 [5] | IC50 [6] | IC50 [7]
COc1cccc(-c2cc(C(C)=O)n3ccc(N4CCOCC4)cc23)n1 | 0.53 °C | 1.3 °C | 0.82 °C | – | – | – | –
O=C(c1cc(-c2cccc3nccn23)c2cc(N3CCOCC3)ccn12)C(F)(F)F | 0.2 °C | 0.26 °C | -0.4 °C | – | – | – | –
CC(=O)c1cc(-c2cc(C(=O)O)ccn2)c2cc(N3CCOCC3)ccn12 | 0.01 °C | -0.06 °C | -0.24 °C | – | – | – | –
CC(=O)c1cc(-c2ccccn2)c2cc(N3CCNCC3)ccn12 | 1.7 °C | 5.7 °C | 4 °C | – | – | – | –
CCCOc1ccn2c(C(C)=O)cc(-c3cc(C(=O)OC)ccn3)c2c1 | 0.09 °C | -0.03 °C | -0.24 °C | – | – | – | –
CCCOc1ccn2c(C(C)=O)cc(-c3ccccn3)c2c1 | 0.32 °C | 1.1 °C | -0.35 °C | – | – | 2.51 µM | 2.51 µM
CCCOc1ccn2c(C(C)=O)cc(-c3cccc(Cl)n3)c2c1 | 0.18 °C | 0.085 °C | -0.6 °C | – | – | – | –
CC(=O)c1cc(-c2ncc(C)cc2F)c2cc(N3CCOCC3)ccn12 | 0.48 °C | -0.28 °C | -0.42 °C | – | – | – | –
CC(=O)c1cc(-c2ccc(C(F)(F)F)cn2)c2cc(N3CCOCC3)ccn12 | 2.5 °C | -1.1 °C | -4 °C | – | – | – | –
CC(=O)c1cc(-c2ccccn2)c2cc(N3CCOCC3)ccn12 | 1.3 °C | 5.7 °C | 1.9 °C | – | – | 3.16 µM | 0.501 µM
CC(=O)c1cc(-c2ccc(Cl)cn2)c2cc(N3CCOCC3)ccn12 | 0.22 °C | -0.23 °C | -0.39 °C | – | – | – | –
CC(=O)c1cc(-c2nc3ccccc3s2)c2cc(N3CCOCC3)ccn12 | 0.04 °C | -0.3 °C | 0.55 °C | – | – | – | –
CC(=O)c1cc(-c2ncccc2F)c2cc(N3CCOCC3)ccn12 | 0.71 °C | 1.3 °C | 0.41 °C | – | – | – | –
CC(=O)c1cc(-c2ncccn2)c2cc(N3CCOCC3)ccn12 | 0.29 °C | 0.035 °C | 0.43 °C | – | – | – | –
COC(=O)c1ccnc(-c2cc(C(C)=O)n3ccc(N4CCOCC4)cc23)c1 | 0.04 °C | 0.35 °C | 0.075 °C | – | – | – | –
CC(=O)c1cc(-c2cccc(C)n2)c2cc(N3CCOCC3)ccn12 | 0.65 °C | 4.2 °C | 1.2 °C | – | – | 15.8 µM | 0.501 µM
CC(=O)c1cc(-c2cccc(Cl)n2)c2cc(N3CCOCC3)ccn12 | 0.34 °C | 0.81 °C | 0.28 °C | – | – | – | –

Continued, values first:

ΔTm [1] | ΔTm [2] | ΔTm [3] | IC50 [4] | IC50 [5] | IC50 [6] | IC50 [7] | SMILES
0.085 °C | 0.76 °C | -0.65 °C | – | – | – | – | CN1CCN(c2ccn3c(C(=O)C4CC4)cc(-c4cccc5nccn45)c3c2)CC1
3.5 °C | 7.5 °C | 4.1 °C | ≤ 1 µM | ≤ 1 µM | – | – | CC(=O)c1cc(-c2cccc3nccn23)c2cc(N3CCN(C)CC3)ccn12
0.2 °C | 3 °C | 0.98 °C | – | – | – | – | CCC(=O)c1cc(-c2cccc3nccn23)c2cc(N3CCOCC3)ccn12
0.5 °C | 0.27 °C | -0.78 °C | – | – | – | – | CCCCC(=O)c1cc(-c2cccc3nccn23)c2cc(N3CCN(C)CC3)ccn12
0.26 °C | 0.3 °C | -0.7 °C | – | – | – | – | CN1CCN(c2ccn3c(C(=O)C(F)(F)F)cc(-c4cccc5nccn45)c3c2)CC1
0.15 °C | 1.2 °C | 0.51 °C | – | – | – | – | CCC(=O)c1cc(-c2cccc3nccn23)c2cc(N3CCN(C)CC3)ccn12
0.71 °C | 1 °C | 0.19 °C | – | – | – | – | CC(C)C(=O)c1cc(-c2cccc3nccn23)c2cc(N3CCN(C)CC3)ccn12
2.3 °C | 5.1 °C | 2.6 °C | – | – | – | – | CC(=O)c1cc(-c2cccc3nccn23)c2cc(N3CCNCC3)ccn12
